According to US11591306B2, “Vitamin E-based amphipathic compound, and use thereof” (Industry-University Cooperation Foundation Hanyang …, priority 2017, dated 2023):

Molecular target: T1, β2AR-Gs complex (Homo sapiens, UniProt P07550)
T1 construct: made in house
Assay: β2AR-Gs complex stability by analytical gel filtration (SEC)
Conditions: complex purified in VEG-3, 3 and 15-day incubation, compound-free running buffer
Description: 100 μM β2AR solubilized in 0.1% DDM mixed with 120 μM Gs heterotrimer for 30 minutes at room temperature. 0.5-unit apyrase (NEB) and 2 mM MgCl2 were added to facilitate complex formation, followed by further incubation for one hour. Subsequently, 1.0% VEG-3 was added such that the final concentration reached 0.2%, and the sample was further incubated for 30 minutes to change DDM to VEG-3. The protein solution was loaded into a M1 Flag column, washed with a series of buffers with different molar ratios of 0.1% DDM buffer to 0.5% VEG-3 buffer to completely change DDM to VEG-3, and the receptor-Gs complex was finally eluted with a 0.05% VEG-3 buffer. Preparative gel filtration was performed to purify the β2AR-Gs complex with a running buffer (20 mM HEPES pH 7.5, 100 mM NaCl, 0.005% DTM-A6, 1 mM BI, […]). To measure the stability of the β2AR-Gs complex in VEG-3, analytical gel filtrations were performed using the running buffer as above, but after 3 and 15-day incubation, performed without VEG-3 (compound-free condition).

T1 sequence (P07550 whole entry): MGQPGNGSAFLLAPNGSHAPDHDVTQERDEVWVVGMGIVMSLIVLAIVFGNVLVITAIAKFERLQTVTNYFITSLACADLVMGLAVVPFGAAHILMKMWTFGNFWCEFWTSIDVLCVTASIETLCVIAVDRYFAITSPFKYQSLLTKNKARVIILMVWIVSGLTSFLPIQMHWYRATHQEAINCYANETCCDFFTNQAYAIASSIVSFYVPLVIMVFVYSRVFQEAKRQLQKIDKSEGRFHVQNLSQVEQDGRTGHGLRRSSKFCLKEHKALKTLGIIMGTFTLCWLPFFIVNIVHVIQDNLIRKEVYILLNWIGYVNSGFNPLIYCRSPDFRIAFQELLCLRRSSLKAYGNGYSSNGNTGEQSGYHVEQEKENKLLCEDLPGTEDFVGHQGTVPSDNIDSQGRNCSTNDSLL
T1 sequence (P63092 whole entry partner): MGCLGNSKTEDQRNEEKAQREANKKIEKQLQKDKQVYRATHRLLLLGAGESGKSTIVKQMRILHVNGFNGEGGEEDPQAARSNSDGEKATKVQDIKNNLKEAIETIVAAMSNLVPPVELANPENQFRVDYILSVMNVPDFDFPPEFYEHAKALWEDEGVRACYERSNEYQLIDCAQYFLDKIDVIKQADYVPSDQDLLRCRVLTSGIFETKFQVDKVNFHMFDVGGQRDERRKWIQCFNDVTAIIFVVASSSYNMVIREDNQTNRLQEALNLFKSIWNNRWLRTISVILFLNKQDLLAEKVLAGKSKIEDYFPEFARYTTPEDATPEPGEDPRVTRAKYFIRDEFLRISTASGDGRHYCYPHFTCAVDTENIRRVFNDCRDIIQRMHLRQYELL
T1 sequence (P62873 whole entry partner): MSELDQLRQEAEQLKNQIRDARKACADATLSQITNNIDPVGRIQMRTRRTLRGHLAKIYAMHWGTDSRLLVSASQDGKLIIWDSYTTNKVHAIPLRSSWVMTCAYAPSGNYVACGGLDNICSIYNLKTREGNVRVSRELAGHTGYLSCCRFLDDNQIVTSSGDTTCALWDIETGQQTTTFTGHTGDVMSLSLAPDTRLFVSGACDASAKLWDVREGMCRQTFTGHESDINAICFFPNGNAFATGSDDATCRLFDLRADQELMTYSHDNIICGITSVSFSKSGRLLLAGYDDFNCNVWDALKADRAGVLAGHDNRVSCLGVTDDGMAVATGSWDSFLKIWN
T1 sequence (P59768 2-68 partner limits assumed): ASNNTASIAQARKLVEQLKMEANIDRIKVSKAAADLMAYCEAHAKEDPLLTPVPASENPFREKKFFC

Cc1c(C)c2c(c(C)c1OCC(=O)NC(CO[C@@H]1OC(CO)[C@@H](O[C@H]3OC(CO)[C@@H](O)[C@H](O)C3O)[C@H](O)C1O)CO[C@@H]1OC(CO)[C@@H](O[C@H]3OC(CO)[C@@H](O)[C@H](O)C3O)[C@H](O)C1O)CCC(C)(CCCC(C)CCCC(C)CCCC(C)C)O2 (stereo partly shown) [VEG-3]
Integrity of the purified β2AR-Gs complex (SEC): continuously maintains its integrity as a complex for 15 days
